Experimental data: patent US20070275936A1, “Formulations and Treatment Methods” (priority 1998, published 2007)

How the values were obtained:
[1] = tested on: Chloroquine sensitive T996/86 P. falciparum; assay: In vitro antimalarial testing (schizont inhibition / 3H-hypoxanthine incorporation); format: cell-based; conditions: Plasmodium falciparum, T996
Experimental: For in vitro antimalarial testing, micro-titer plates were used. The concentration of drugs were prepared as pMol/well according to WHO standard procedures (WHO, 1990). The test compound was dissolved in 15% DMSO in sterile RPMI-1640. Both chloroquine sensitive (e.g., WS/97) and resistant (e.g., MN/97) isolates of Plasmodium species are used.
A schizont inhibition assay was performed as follows. The micro-titer plates were predosed with various concentrations of the test compound. 50 μL of parasitised erythrocyte suspension in RPMI-1640 (0.2 mL erythrocyte+0.3 mL serum+4-5 ml RPMI-1640) were dispensed in microtiter wells that contained various concentrations of drug. Triplicate readings were made for each concentration.
A ^3H-hypoxanthine incorporation assay was performed as follows. The testing was carried out according to the procedure of Desjardins et al. 1979. After 30 hr culture at 37 degrees C., the same microtiter plates from schizont inhibition assays with another triplicate wells were pulsed with ^3H-hypoxanthine for overnight. The cell suspensions were washed twice on millipore glass fiber filter with Millipore filter apparatus. The filter discs were counted for DPM by a Beckman LS6000 β-scintillation counter. The activity of the drug was measured by plotting DPM against concentration of drug.

BALB/c mice = assay: Reversal of immunosenescence: HBsAg vaccination of aged mice; format: in vivo; conditions: for mice producing anti-HBsAg in response to secondary vaccination: groups of 8, 0.3 mg/mouse at primary vaccination
Experimental: Healthy aged (20-month) or immunologically-mature (3-month) BALB/c mice were vaccinated with hepatitis B surface antigen (HBsAg) (2 μg; Recombivax-HB; Merck) and Alum (2.75 μg). The aged mice were vaccinated with the antigen and also received a single subcutaneous injection of either 0.3 mg or 3.0 mg of 3β,7β,17β-trihydroxyandrost-5-ene (AET), BrEA or 7-oxodehydroepiandrosterone, dehydroepiandrosterone or the vehicle (placebo control). The AET, BrEA hemihydrate or dehydroepiandrosterone was present in a formulation that contained 60 mg/mL of the compound suspended in 0.1% w/v carboxymethyl cellulose sodium in 0.9% saline. 7-Oxodehydroepiandrosterone was in a formulation that contained 60 mg/mL of the compound suspended in 0.1% w/v gum arabic in 0.9% saline. A concentration of 6 mg/mL was obtained by diluting the 60 mg/mL formulation with vehicle that lacked the active substance.
Blood samples were collected 14, 21 and 34 days after treatment and the sera were analyzed by ELISA to determine the concentration of HBsAg-specific IgG (total IgG). In addition, samples obtained on day 21 were analyzed to determine the concentration of HBsAg-specific IgG1 and IgG2a subclasses. The results summarized below were average values obtained with blood samples collected 21 days after vaccination of groups of 8 mice. Subcutaneous injection was performed after shaving the hair from the thighs of each mouse. The injected volume was 50 μL for compound (3.0 mg or 0.3 mg) or placebo, and for vaccine preparation. The vehicle control consisted of carboxymethylcellulose (0.5%) in saline (0.9%). Antibody titers were determined by ELISA.
Secondary antibody response. Later, 42 days after the initial exposure to HBsAg, serum samples were taken from the mice described in the previous section and these were tested for anti-HBsAg IgG. At this time-point, vaccine-specific IgG titers were either low or undetectable. Three days later (45 days after first vaccination), the mice were injected again with HBsAg in Alum, but this time, none of the mice received immunosteroid (secondary vaccination). Serum samples collected 7 days and 14 days after the second exposure to HBsAg vaccine were assayed for anti-HBsAg antibody. […] In contrast, in aged mice that had received no immunosteroid with the first HBsAg injection, low levels of anti-HBsAg were detectable, and only in 4 of the 8 mice in this group was antibody detectable. Increases in anti-HBsAg titers were seen following secondary vaccination in aged animals that had been treated with immunosteroid in conjunction with the first HBsAg exposure. The anti-HBsAg antibody titer in serum increased following secondary vaccination in all 8 mice in the groups of aged mice that were treated at primary vaccination with the higher dose (3 mg/mouse) of AET, BrEA or 7-oxodehydroepiandrosterone, or with dehydroepiandrosterone (0.3 mg/mouse). In those aged mice that had received the lower dose (0.3 mg/mouse) of AET, BrEA or 7-oxodehydroepiandrosterone at vaccination, an intermediate response was seen, with 6 of the 8 mice producing detectable anti-HBsAg in response to secondary vaccination.

P. berghei HP15 ANKA = assay: Four-day in vivo suppressive test in TO mice; parameters: species or system Plasmodium berghei; conditions: 100 mg/kg × 4 days i.p., day 5 blood films, 5 equals control
Experimental: The 4-day suppressive test has been widely used and it can be performed within a 1 week period. The test consists of the inoculation of parasitised erythrocytes on the first day of the experiment (D0), followed by an injection of the test compound, which is also administered on the 2nd, 3rd and 4th days of the protocol. On the 5th day, blood films are taken and antimalarial activity is assessed either by calculating parasitemia, or by scoring parasite numbers on a predetermined scale (i.e., 1-5).
The protocol is summarized as follows. Five female TO mice were used per test group. P. berghei HP15 ANKA parasites were collected by cardiac puncture using a heparinised syringe from a donor mouse having a 30+% parasitaemia. The blood was diluted with diluting agent (50% HIFCS+50% sterile PBS) to a final concentration of 1% parasitaemia or 1×10^7 infected erythrocytes per 0.2 mL of the infecting suspension. […] The steroid formulations were administered intraperitoneally 2 hours after parasite inoculation. The compounds were administered once a day starting on Do, and continued on the following three days. Blood films were made from tail blood on the day after the last dosing of compound and the blood was fixed with 100% methanol and stained with 10% Giemsa. Parasitaemias were scored on a scale of 0-5, where 5 is equal to the control.
An inoculum of 1% parasitaemia […], 0.2 mL per mouse (female strain TO mice), was delivered by intravenous injection. Drug administration commenced 2 hours after inoculation on Day 1 and continued for 3 days.

| SMILES | IC50 [1] [µM] | inhibition at 0.938 µM [1] [%] | inhibition at 1.875 µM [1] [%] | inhibition at 3.25 µM [1] [%] | inhibition at 7.5 µM [1] [%] | inhibition at 15 µM [1] [%] | inhibition at 30 µM [1] [%] | mice producing anti-HBsAg in response to secondary vaccination (BALB/c mice) [mice] | mice with increased anti-HBsAg antibody titer following secondary vaccination (BALB/c mice; groups of 8, 3 mg/mouse at primary vaccination) [mice] | Parasitaemia Score (0-5) (P. berghei HP15 ANKA) |
| --- | --- | --- | --- | --- | --- | --- | --- | --- | --- | --- |
| C[C@]12CC[C@H](O)C[C@@H]1CC[C@@H]1[C@@H]2CC[C@]2(C)C(=O)[C@H](Br)C[C@@H]12 [BrEA, 16α-bromo-3β-hydroxy-5α-androstane-17-one] | 7.5 | 31.8 | 40.9 | 43.7 | 50 | 60.1 | 98 | 6 | 8 | 1 |
| C[C@]12CC[C@H](O)CC1=CC[C@@H]1[C@@H]2CC[C@]2(C)C(=O)CC[C@@H]12 [DHEA, dehydroepiandrosterone, reference compound] | 19 | 37.2 | 23.2 | 37.2 | 38.3 | 44 | 65.6 | 8 |  | 1 |
